ChEMBL document CHEMBL1201862, “PubChem BioAssay data set” (2004)
Activity calls are given as the source filed them.

Key:
[1] = molecular target: 72 kDa type IV collagenase (Homo sapiens, UniProt P08253); assay: Dose Response validation of uHTS RPN11 inhibitor hits using a MMP-2 Fluorescence assay.; assay type: functional
[2] = molecular target: T1, Ubiquitin-conjugating enzyme E2 N (Homo sapiens, UniProt P61088); assay type: functional
T1 sequence (P61088 whole entry): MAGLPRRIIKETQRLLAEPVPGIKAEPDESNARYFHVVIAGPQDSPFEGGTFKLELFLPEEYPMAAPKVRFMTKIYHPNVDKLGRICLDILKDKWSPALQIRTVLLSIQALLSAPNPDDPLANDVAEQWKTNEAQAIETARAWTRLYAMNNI

[3] = molecular target: 26S proteasome non-ATPase regulatory subunit 14 (Homo sapiens, UniProt O00487); assay: inhibition of proteasome subunit RPN11 – biochemical, fluorescence polarization, uHTS hits, confirmation (AID 602368); assay type: functional
Sequence of 26S proteasome non-ATPase regulatory subunit 14 (O00487 whole entry): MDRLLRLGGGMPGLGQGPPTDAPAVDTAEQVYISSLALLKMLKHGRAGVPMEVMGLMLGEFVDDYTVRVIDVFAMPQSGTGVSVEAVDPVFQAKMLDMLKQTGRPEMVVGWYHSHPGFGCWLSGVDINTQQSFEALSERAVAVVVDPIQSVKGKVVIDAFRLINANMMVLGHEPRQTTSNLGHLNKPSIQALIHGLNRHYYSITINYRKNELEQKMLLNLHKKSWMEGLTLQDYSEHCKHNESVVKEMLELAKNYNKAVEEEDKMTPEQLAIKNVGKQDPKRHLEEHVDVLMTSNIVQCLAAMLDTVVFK

Prothrombin = Prothrombin (Bos taurus, UniProt P00735); assay: thrombin inhibition, dose response, biochemical, fluorescence polarization, uHTS hits (AID 602369); assay type: functional
SUMO-activating enzyme [4] = molecular target: T2, SUMO-activating enzyme (Homo sapiens, UniProt Q9UBT2); assay: SUMOylation inhibitor hit validation, confirmation, SUMOylation inhibitor project, biochemical, AlphaScreen (AID 2018); assay type: functional
T2 sequence (Q9UBE0 whole entry): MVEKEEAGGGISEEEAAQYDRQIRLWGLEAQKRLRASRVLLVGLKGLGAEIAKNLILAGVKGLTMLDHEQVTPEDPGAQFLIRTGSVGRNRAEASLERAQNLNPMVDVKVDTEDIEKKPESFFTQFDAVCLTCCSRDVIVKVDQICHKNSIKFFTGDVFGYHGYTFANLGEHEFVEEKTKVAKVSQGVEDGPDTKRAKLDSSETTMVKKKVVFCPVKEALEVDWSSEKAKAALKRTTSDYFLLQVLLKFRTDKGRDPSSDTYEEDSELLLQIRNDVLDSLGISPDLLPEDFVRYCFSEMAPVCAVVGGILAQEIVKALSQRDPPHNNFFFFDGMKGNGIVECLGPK
T2 sequence (Q9UBT2 whole entry): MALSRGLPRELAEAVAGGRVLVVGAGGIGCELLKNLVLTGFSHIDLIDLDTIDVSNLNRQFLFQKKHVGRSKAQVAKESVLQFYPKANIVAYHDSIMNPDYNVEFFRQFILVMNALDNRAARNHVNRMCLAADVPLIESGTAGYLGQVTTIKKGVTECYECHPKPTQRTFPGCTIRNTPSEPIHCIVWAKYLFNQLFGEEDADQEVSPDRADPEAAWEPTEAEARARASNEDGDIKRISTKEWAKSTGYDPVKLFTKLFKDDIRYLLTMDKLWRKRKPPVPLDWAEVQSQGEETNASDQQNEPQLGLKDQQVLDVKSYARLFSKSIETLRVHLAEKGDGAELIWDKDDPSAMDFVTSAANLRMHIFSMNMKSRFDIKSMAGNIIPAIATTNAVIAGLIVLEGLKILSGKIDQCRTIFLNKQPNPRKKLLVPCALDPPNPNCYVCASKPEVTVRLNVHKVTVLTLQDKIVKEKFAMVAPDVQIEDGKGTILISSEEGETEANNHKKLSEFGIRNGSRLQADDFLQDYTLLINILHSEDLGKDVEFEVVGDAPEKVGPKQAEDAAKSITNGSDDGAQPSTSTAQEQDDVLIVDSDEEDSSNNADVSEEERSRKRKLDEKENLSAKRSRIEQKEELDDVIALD

[5] = molecular target: T3, Apoptotic protease-activating factor 1 (Homo sapiens, UniProt O14727); assay: SAR analysis of small molecule inhibitors of Apaf-1 in a Fluorescent assay.; assay type: functional; settings: read-out: IC50_Mean
T3 sequence (O14727 whole entry): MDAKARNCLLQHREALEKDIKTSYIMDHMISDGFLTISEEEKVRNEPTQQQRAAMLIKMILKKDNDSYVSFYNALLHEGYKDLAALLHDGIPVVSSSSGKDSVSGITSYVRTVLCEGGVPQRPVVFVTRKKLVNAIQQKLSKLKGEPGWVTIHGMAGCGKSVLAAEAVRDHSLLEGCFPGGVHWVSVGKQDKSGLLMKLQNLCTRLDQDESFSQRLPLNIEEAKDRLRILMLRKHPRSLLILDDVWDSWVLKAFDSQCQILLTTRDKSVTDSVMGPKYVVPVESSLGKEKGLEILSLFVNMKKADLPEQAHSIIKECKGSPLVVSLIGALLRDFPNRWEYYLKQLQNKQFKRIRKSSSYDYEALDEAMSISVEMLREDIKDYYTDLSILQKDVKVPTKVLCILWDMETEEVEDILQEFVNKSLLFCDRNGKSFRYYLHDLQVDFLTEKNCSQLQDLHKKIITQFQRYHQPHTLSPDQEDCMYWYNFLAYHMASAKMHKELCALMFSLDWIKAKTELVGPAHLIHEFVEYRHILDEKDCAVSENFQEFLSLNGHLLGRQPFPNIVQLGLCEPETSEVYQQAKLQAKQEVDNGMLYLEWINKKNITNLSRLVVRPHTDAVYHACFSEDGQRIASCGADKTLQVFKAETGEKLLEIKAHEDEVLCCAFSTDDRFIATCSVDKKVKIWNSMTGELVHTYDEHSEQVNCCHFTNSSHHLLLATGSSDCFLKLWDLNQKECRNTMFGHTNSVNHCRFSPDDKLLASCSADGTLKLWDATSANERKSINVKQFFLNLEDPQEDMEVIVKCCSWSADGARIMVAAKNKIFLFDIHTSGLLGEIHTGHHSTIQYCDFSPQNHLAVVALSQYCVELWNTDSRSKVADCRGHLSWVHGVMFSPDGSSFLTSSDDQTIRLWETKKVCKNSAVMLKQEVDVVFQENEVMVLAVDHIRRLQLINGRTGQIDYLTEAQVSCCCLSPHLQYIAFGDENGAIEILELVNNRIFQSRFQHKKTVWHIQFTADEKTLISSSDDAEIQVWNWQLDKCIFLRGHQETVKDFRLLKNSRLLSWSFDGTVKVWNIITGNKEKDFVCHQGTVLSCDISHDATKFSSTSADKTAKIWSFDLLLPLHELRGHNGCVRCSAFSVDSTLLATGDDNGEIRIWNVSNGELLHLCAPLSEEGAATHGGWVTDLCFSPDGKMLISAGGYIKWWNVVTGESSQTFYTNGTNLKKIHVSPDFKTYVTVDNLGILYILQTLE

[6] = molecular target: E3 ubiquitin-protein ligase XIAP (Homo sapiens, UniProt P98170); assay: Counter Screen using XIAP-Bir3 for Chemical Antagonists of Bir1/2 domains of IAP-family anti-apoptotic proteins. [Related pubchem assays (depositor defined):AID1018, AID1449, AID1514, AID1638, AID1749, AID1750, AID488957, AID488963]
Sequence of E3 ubiquitin-protein ligase XIAP (P98170 whole entry): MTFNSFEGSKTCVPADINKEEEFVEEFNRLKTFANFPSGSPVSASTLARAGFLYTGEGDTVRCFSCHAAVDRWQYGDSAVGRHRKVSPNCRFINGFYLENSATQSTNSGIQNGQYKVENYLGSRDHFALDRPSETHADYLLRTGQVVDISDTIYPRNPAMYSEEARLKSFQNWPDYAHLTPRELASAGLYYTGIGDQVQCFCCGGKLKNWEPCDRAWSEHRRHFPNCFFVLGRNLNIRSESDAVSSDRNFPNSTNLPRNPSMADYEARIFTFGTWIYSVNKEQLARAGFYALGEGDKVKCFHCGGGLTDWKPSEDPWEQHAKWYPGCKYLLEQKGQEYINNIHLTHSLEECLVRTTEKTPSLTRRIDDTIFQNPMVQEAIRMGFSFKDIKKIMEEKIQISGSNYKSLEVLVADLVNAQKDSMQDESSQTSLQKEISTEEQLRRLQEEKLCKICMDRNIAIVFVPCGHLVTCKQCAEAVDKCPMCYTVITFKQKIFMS

[7] = HeLa cell cytotoxicity, dose response, cytotoxicity control for MgcRacGAP inhibitor project (AID 624300); assay type: functional
Bcl-2-related protein A1 = molecular target: T4, Bcl-2-related protein A1 (Mus musculus, UniProt Q07440); assay type: functional;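 further: confirmatory dose–response counterscreen on Bfl-1, used to check hits from a UBC13 polyubiquitin inhibitor campaign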
T4 sequence (Q07440 whole entry): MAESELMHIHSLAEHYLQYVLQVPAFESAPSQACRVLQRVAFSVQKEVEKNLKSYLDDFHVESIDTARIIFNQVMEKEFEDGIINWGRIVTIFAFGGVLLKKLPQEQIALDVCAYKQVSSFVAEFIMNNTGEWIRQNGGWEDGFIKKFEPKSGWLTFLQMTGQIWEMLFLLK

SUMO-activating enzyme [8] = molecular target: T2, SUMO-activating enzyme; assay: inhibitors of in vitro SUMOylation cascade, primary screen, biochemical, HTRF, uHTS (AID 2006); assay type: protein-complex assay
[9] = molecular target: T1, Ubiquitin-conjugating enzyme E2 N; assay type: functional; remark: listed apart in the source
[10] = molecular target: T5, Rac GTPase-activating protein 1 (Homo sapiens, UniProt Q9H0H5); assay: MgcRacGAP GTPase-activating activity inhibitors, confirmation, biochemical, ADP Hunter fluorescence, primary and confirmatory (AID 624330); assay type: functional
T5 sequence (Q9H0H5 whole entry): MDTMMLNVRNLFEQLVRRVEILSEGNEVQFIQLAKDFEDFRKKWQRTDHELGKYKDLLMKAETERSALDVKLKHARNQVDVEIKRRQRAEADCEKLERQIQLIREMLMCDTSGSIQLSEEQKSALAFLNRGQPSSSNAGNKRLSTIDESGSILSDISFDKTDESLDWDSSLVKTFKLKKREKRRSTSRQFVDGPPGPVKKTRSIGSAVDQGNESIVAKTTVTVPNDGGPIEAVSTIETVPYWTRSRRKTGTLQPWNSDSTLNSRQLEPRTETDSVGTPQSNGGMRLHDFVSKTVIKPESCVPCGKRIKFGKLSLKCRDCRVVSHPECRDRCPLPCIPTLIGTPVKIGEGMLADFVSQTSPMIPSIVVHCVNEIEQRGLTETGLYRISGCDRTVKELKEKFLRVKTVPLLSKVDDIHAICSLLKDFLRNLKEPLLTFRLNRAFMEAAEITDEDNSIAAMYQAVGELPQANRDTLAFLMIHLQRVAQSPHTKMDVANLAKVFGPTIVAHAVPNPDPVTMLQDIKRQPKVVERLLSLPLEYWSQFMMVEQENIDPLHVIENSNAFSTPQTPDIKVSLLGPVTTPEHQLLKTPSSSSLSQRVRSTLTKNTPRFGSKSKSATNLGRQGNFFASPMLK

[11] = molecular target: T3, Apoptotic protease-activating factor 1; assay type: functional
[12] = molecular target: T6, DNA repair protein RAD52 homolog (Homo sapiens, UniProt P43351); assay type: functional, biochemical
T6 sequence (P43351 whole entry): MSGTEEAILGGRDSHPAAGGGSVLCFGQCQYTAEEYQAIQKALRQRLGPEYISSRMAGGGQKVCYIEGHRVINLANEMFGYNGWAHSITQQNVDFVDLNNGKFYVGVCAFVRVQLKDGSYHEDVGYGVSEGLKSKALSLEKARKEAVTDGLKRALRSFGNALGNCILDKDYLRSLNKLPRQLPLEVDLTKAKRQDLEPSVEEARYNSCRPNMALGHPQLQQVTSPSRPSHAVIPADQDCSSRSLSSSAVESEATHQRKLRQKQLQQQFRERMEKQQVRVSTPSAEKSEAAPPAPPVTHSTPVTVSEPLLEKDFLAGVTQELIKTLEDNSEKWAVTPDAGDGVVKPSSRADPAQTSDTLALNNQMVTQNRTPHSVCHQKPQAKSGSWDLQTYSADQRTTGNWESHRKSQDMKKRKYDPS

[13] = molecular target: Glycogen synthase kinase-3 beta (Homo sapiens, UniProt P49841); assay: GSK3beta kinase inhibitors, dose response, biochemical, microfluidics, dry powder samples, set 2 (AID 623989); assay type: functional
Sequence of Glycogen synthase kinase-3 beta (P49841 whole entry): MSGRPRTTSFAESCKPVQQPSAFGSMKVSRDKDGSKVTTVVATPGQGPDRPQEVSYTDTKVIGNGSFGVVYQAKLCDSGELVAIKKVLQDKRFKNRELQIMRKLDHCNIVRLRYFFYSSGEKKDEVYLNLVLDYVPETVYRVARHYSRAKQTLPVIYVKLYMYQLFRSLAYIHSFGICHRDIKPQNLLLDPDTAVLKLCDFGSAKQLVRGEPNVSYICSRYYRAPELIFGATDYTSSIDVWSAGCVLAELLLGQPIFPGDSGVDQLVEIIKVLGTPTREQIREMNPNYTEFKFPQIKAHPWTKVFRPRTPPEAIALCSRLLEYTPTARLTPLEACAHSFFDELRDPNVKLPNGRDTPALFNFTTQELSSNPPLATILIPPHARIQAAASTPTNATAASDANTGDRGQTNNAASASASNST

[14] = molecular target: Glycogen synthase kinase-3 alpha (Homo sapiens, UniProt P49840); assay: human GSK3 alpha kinase inhibition, dose response, selectivity assay for GSK3beta inhibitor project, biochemical, microfluidics, dry powder samples, set 2 (AID 623978); assay type: functional
Sequence of Glycogen synthase kinase-3 alpha (P49840 whole entry): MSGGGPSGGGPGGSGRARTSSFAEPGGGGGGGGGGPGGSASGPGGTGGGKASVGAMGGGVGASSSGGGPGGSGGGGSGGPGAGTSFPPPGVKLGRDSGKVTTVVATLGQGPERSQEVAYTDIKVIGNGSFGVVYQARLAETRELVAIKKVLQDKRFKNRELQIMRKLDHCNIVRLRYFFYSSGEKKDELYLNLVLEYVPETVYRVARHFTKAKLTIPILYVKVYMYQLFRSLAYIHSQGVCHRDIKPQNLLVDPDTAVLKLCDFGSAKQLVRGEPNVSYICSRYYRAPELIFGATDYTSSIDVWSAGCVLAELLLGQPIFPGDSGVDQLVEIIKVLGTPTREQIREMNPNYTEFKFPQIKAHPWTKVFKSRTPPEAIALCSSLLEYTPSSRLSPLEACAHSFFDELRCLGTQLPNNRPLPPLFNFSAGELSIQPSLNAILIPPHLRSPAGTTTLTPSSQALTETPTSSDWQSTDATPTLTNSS

[15] = molecular target: Cyclin-dependent kinase 19 (Homo sapiens, UniProt Q9BWU1); assay: Navigating the Kinome. Panel member name: CDC2L6; assay type: functional
Sequence of Cyclin-dependent kinase 19 (Q9BWU1 whole entry): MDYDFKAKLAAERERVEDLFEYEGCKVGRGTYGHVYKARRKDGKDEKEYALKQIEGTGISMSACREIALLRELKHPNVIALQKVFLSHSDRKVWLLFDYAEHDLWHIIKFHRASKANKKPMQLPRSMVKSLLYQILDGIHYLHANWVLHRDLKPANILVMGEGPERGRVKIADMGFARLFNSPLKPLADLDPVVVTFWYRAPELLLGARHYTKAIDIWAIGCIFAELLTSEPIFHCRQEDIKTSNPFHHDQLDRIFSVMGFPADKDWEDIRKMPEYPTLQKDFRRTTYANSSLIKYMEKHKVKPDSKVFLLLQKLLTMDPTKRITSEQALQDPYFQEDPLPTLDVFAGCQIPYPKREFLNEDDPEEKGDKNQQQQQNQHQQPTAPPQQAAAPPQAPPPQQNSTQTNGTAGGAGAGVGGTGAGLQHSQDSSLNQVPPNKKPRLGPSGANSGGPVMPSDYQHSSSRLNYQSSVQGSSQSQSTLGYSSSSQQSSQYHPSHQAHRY

[16] = molecular target: Cell division cycle 7-related protein kinase (Homo sapiens, UniProt O00311); assay type: functional;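 further: value obtained from a kinome-wide kinase panel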
Sequence of Cell division cycle 7-related protein kinase (O00311 whole entry): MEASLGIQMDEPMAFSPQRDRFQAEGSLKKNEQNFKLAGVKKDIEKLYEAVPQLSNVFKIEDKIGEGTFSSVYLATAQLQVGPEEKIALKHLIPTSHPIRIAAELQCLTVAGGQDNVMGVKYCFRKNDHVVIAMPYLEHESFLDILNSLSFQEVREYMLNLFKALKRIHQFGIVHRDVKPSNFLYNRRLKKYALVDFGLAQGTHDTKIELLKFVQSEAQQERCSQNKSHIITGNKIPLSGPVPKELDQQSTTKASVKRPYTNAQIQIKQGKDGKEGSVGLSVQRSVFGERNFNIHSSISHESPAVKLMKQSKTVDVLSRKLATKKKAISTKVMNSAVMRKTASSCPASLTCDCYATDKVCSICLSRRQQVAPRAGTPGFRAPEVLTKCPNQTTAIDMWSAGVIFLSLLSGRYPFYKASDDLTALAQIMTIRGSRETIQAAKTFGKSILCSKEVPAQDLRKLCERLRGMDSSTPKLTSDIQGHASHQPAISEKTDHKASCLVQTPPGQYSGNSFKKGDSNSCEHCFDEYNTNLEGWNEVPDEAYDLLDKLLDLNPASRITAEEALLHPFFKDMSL

Sequence of 72 kDa type IV collagenase (P08253 whole entry): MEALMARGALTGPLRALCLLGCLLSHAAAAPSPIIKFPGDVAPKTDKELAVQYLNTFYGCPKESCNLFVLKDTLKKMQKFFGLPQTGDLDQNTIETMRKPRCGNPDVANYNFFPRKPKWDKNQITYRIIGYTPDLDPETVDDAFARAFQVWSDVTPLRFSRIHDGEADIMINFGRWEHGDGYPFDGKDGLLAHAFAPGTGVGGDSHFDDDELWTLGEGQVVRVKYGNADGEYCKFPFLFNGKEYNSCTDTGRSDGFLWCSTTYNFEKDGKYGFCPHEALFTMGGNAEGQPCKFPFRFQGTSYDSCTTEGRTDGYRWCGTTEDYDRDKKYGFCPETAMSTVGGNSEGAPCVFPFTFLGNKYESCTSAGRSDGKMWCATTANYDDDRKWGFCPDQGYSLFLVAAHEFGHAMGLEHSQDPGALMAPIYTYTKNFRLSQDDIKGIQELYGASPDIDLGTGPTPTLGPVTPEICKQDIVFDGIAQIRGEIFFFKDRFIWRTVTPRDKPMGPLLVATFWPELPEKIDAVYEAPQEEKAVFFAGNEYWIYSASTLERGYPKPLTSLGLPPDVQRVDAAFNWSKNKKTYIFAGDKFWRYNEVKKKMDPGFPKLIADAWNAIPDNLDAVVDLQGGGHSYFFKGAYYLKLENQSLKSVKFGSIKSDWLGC

CCN(CC)CCOC(=O)c1ccc(N/C=C(/C#N)c2nc(-c3ccc(OC)c(OC)c3)cs2)cc1
IC50 [1]: > 100 µM (inactive) | IC50 [2]: 3.02 µM (active) | IC50 [3]: 23.2 µM (active) | IC50 (Prothrombin): 28.7 µM (active) | IC50 (SUMO-activating enzyme [4]): 7.12 µM (active) | IC50 [5]: 3.93 µM (active) | IC50 [6]: > 20 µM (inactive) | CC50 [7]: 92.3 µM (active) | IC50 (Bcl-2-related protein A1): 3.44 µM (active) | IC50 (SUMO-activating enzyme [8]): 11.7 µM (active) | IC50 [9]: 3.76 µM (active) | IC50 [10]: 32.4 µM (active) | IC50 [11]: 4.09 µM (active) | AC50 [12]: 10.9 µM (active)

COC(=O)c1ccc(CSc2ccc3nnc(-c4ccc(F)cc4)n3n2)o1
AC50 [13]: 0.509 µM (active) | AC50 [14]: 1.87 µM (active)

CN(C)CCNC(=O)c1ccc(-c2ccnc(Nc3cccc(F)c3)n2)cc1
Ki [15]: 31.6 µM (active) | Ki [16]: 0.251 µM (active)
